From the METLIN SMRT retention time set (Domingo-Almenara et al. 2019) come the findings set out here.

Structures are written as SMILES.

A short description of this series: gradient 5% acetonitrile 3 min, to 50% in 2 min, to 85% in 15 min, held 3 min, 100 µL/min. Particulars: column: Zorbax Extend-C18 2.1 x 50 mm; eluents: water / acetonitrile, 0.1% formic acid. The gist of the method:
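Using water and acetonitrile that each contained 0.1% formic acid, mixtures of ~100 pure standards were separated at 100 μL/min on a Zorbax Extend-C18 column (2.1 × 50 mm, 1.8 μm). The HPLC fed a quadrupole time-of-flight mass spectrometer working in positive and negative ionization mode, with dead and dwell volumes of 40 μL and 900 μL. Data were acquired over 3 months. Retention time was read from computationally picked adduct peaks after manual inspection of each.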
With `COc1ccc(C2C(C(=O)NCc3ccco3)c3ccccc3C(=O)N2C)cc1` (centres undefined), the RP-LC retention time is 776 s.
With `CCOc1ccccc1NC(=O)Cn1c(=O)n(-c2ccc(F)cc2)c(=O)c2c1cc(C)n2C` the figure was 933 s.
On to `Cc1ccc(S(=O)(=O)N2CCCC2c2nc(-c3cccc(C(F)(F)F)c3)no2)cc1` (centres undefined), for which the RP-LC retention time was 1210 s.
With `Cc1ccc(-c2cc(C(=O)NCCc3ccc(S(N)(=O)=O)cc3)c(C)[nH]2)cc1C` the figure was 794 s; with `Cc1oc(C2CCN(S(=O)(=O)c3ccccc3F)CC2)nc1C(=O)N(C)C`, 781 s.
`COc1ccccc1-c1[nH]ncc1CN1CCC2(CC1)CC(O)CCO2` (centres undefined) displayed an RP-LC retention time of 561 s.
With `Cc1c(Cl)cccc1NC(=O)C1CCN(S(=O)(=O)c2ccc3c(c2)NC(=O)CO3)CC1` the figure was 778 s; with `COC(=O)c1cnn2c(C)c(Cc3ccccc3)c(C)nc12`, 835 s.
With `COc1cc(NC(=O)N2CCCN(c3ccc(=O)n(-c4ccccc4)n3)CC2)cc(OC)c1OC` the figure was 694 s; with `COc1nc2ccccc2nc1N1CCCC(C(=O)NC(C)c2ccccc2)C1` (centres undefined), 1050 s.
With `COc1ccc2[nH]c3c(c2c1)CCNC3` the figure was 365 s.
Turning to `COc1ccc(CNC(=O)c2ccc3c(c2)OCO3)c(OC)c1`, the RP-LC retention time amounted to 749 s.
For the compound `O=C(Cc1ccsc1)N1CCC(c2noc(C3CC3)n2)C1` (centres undefined), the RP-LC retention time was 734 s.
Under `CCC(C)C(NC(=O)c1cccc(Cl)c1)C(=O)Nc1nc2ccccc2[nH]1` (centres undefined) stands 750 s; under `CC1CCCN(CCCNC(=O)CCCn2c3ccccc3c3cnn(C)c(=O)c32)C1` (centres undefined), 626 s; under `COc1ccc(NC(=O)N2CCC(c3cc(N)on3)CC2)cc1F`, 663 s.
Under `Cc1nnc(NC(=O)CN2CCCCC2c2nc(C(C)C)no2)s1` (centres undefined) stands 781 s; under `Cc1ccccc1C(=O)Nc1ccc(C(=O)N2CCCC(O)c3cc(Cl)ccc32)c(C)c1` (centres undefined), 899 s; under `Cc1ccc(-c2coc(-c3ccc(NC(=O)NCc4ccco4)cc3)n2)c(C)c1`, 1110 s.
With `Cc1cnc(CC2CCN(S(=O)(=O)c3cn(C)cn3)C2)n1Cc1ccccc1` (centres undefined) the figure was 590 s; with `C=CCn1c(=O)c2ccccc2n(Cc2nc(-c3ccccc3OCC)no2)c1=O`, 1000 s.
Compound `COc1ccc(NS(=O)(=O)c2cc(-c3[nH]ncc3C(=O)N(C)C)oc2C)cc1Cl` returned an RP-LC retention time of 699 s.
With `CC1CCCN(CCCNC(=O)CCCn2c(=O)c3cccn3c3ccc(F)cc32)C1` (centres undefined) the figure was 650 s; with `N#CCN(c1ccc(F)cc1)S(=O)(=O)c1ccc2nncn2c1`, 669 s.
Under `O=C(NC(c1ccccc1)c1nnc(-c2ccccc2Cl)o1)c1ccco1` (centres undefined) stands 908 s; under `Cc1cnc(-c2ccccc2)n1C1CCCN(S(=O)(=O)c2ccc3c(c2)OCCO3)C1` (centres undefined), 712 s.
Under `O=C1NC(c2cccc([N+](=O)[O-])c2)=CCN1c1ccccc1O` stands 837 s.
In turn, `O=C(CC1CCCC1)NCCC1CCN(C(=O)Nc2ccc(F)cc2F)CC1` came in with an RP-LC retention time of 812 s.
With `COc1cccc(NC(=O)C2CCN(S(=O)(=O)c3ccc4c(c3)sc(=O)n4C(C)C)CC2)c1` the figure was 960 s; with `Cc1ccc(S(=O)(=O)N2CCC(C(=O)NCc3csc(-c4ccccc4)n3)CC2)c(C)c1`, 996 s.
For `COc1cccc(CNC(=O)c2cn3cc(C)ccc3n2)c1OC`, the RP-LC retention time came out at 541 s.
Under `c1ccc2c(CCNc3ncnc4nc[nH]c34)c[nH]c2c1` stands 577 s; under `Cc1cccc(CNC(=O)c2ncn3c2C(=O)N(C2CC2)C(C)(C(=O)NCc2cccc(C)c2)C3)c1` (centres undefined), 832 s; under `COc1ccccc1CN1CC(=O)N(c2cccc(C)c2)[C@@H]2CS(=O)(=O)C[C@@H]21`, 819 s.
With `O=C(c1ccc(-c2ccsc2)nc1)N1CCCCCC1` the figure was 841 s.
With `O=C1CC(c2noc(CCCc3ccccc3)n2)CN1c1ccc(F)c(Cl)c1` (centres undefined) the figure was 1150 s; with `Cc1cc(=O)n(CC(=O)Nc2ccc3c(c2)OCO3)c(N2CCCC2)n1`, 629 s; with `Cc1cccc(NC(=O)Cn2nc3c(Oc4cc(C)cc(C)c4)nccn3c2=O)c1`, 934 s.
In turn, `Cc1ccc(NC(=O)NCC2CCOCC2)c(Cl)c1` yielded an RP-LC retention time of 720 s.
With `CNC(=O)c1ccc(-c2nc3cc(NS(=O)(=O)c4cc(F)ccc4C)ccc3n2C)cc1` the figure was 832 s; with `COc1ccc(NC(=O)c2cnc(N3CCN(C(C)C)CC3)nc2N)cc1`, 593 s.
Under `CC(C)c1csc(-c2csc(S(=O)(=O)NCc3ccc(N(C)C)cc3)c2)n1` stands 930 s; under `N#Cc1cccc(NC(=O)C2CCCN(S(=O)(=O)c3cc(-c4noc(C5CCC5)n4)cs3)C2)c1` (centres undefined), 1120 s; under `COc1ccc(NC(=O)c2cc(C(C)(C)C)n3nccc3n2)c(C)c1`, 1240 s.
With `COC(=O)c1ccccc1NC(=O)CCn1c(=O)oc2ccccc21` the figure was 825 s; with `O=C(CCc1c(-c2ccccc2)nc2ccccn12)NC1CC1`, 561 s.
`Cc1cc(C)cc(NC(=O)N2CCC(OC3CCN(S(C)(=O)=O)CC3)CC2)c1`: the RP-LC retention time was found to be 718 s.
Under `COc1ccccc1CNC(=O)C1CCN(S(C)(=O)=O)c2ccccc2O1` (centres undefined) stands 807 s; under `CCc1nc(-c2csc(S(=O)(=O)N3CCCC(C(=O)Nc4ccc(Cl)cc4)C3)c2)no1` (centres undefined), 1100 s; under `Cc1cnc(-c2ccccc2)n1CCNS(=O)(=O)Cc1ccccc1F`, 651 s.
Compound `COc1ccc(CNS(=O)(=O)c2ccc3c(c2)CCCC(=O)N3)cc1` registered an RP-LC retention time of 699 s.
Under `c1ccc(-c2nc(-c3cccc(-c4ccn[nH]4)c3)no2)cc1` stands 966 s; under `COc1ccc(OC)c(NC(=O)Nc2c(-c3ccc(C)cc3)nc3ccccn23)c1`, 698 s; under `Cc1ccc(-n2c(=O)c3c(cc(C)n3C)n(CC(=O)Nc3ccc(C)c(F)c3)c2=O)cc1`, 931 s.
Consider `O=S(=O)(c1cccnc1)N1CCCC(c2nnc(C(F)(F)F)o2)C1` (centres undefined), for which the RP-LC retention time turned out to be 747 s.
With `Cc1nc(-n2cccc2)sc1C(=O)NCCN(C)C` the figure was 547 s; with `Clc1ccc(-c2ccc(CNCC3CCCO3)o2)c(Cl)c1` (centres undefined), 738 s; with `CCCCNc1nc2c(c(=O)n(C)c(=O)n2C)n1CC(O)COc1ccccc1` (centres undefined), 882 s.
Under `Cc1ccc(NC(=O)Cn2c(C)nc3cc4c(cc32)OCCO4)cc1C` stands 678 s.
With `Cn1c(C2CCN(C(=O)c3cc4c(s3)CCCC4)C2)nc2ccncc21` (centres undefined) the figure was 562 s.
`Cc1ccccc1Cn1cc(-c2ccncc2)cc1C(=O)NC1CC1` came in with an RP-LC retention time of 648 s.
With `CC(C)NC(=O)c1ccc(OCC2CCCN(C(=O)c3ccc(F)c(F)c3)C2)cc1` (centres undefined) the figure was 869 s.
Under `CN1C(=O)[C@H]2CN(Cc3ccc(F)cc3F)C[C@H]2C1=O` stands 587 s.
Under `N#CCCSc1ccccc1NC(=O)c1ccc([N+](=O)[O-])s1` stands 846 s; under `O=C(Cc1noc2ccccc12)Nc1cccc2nsnc12`, 814 s.
Compound `CCOC(=O)C1CCC(CNC(=O)Nc2cccc(-c3nnc(-c4ccccc4)o3)c2)CC1` (centres undefined) came in with an RP-LC retention time of 975 s.
With `O=C(C1CCCN(c2ncnc3c2nc2n3CCCCC2)C1)N1CCCc2ccccc21` (centres undefined) the figure was 888 s.
Under `O=C(NC1CCCCC1)N1CCc2nc(-c3ccc(Cl)cc3)ncc2C1` stands 1050 s.
With `O=C(Cn1cccc1-c1nc(-c2ccc3c(c2)OCO3)no1)Nc1cc(F)ccc1F` the figure was 1000 s; with `S=C(NCc1ccc2c(c1)OCO2)N1CCN(c2ncnc3c2oc2ccccc23)CC1`, 875 s; with `CCN1CCN(Cc2nc(-c3ccc(N4CCSCC4)nc3)no2)CC1`, 604 s.
`O=C(NCc1ccccc1)C1CCN(S(=O)(=O)c2cc(C(=O)N3CCOCC3)cs2)CC1` came in with an RP-LC retention time of 694 s.
In turn, `Cc1oc(-c2ccc(NC(=O)c3ccc(Br)cc3)cc2)nc1Cn1cccn1` returned an RP-LC retention time of 948 s.
Regarding `O=C(Cn1cccc(-c2nc(-c3ccc(F)cc3)no2)c1=O)NCc1cccs1`, the RP-LC retention time came out at 673 s.
Under `COc1ccc(N2C(=O)CC(N3CCC(C)CC3)C2=O)cc1` (centres undefined) stands 579 s; under `Cc1nc(-c2ccncc2)nc2c1CCC(=O)N2Cc1ccco1`, 666 s; under `COc1cccc(-c2nc(NCc3ccncc3)ncc2C(=O)O)c1`, 577 s.
In turn, `CCOC(=O)c1c(C)oc2nc(C)nc(NCc3cccc(OC)c3)c12` showed an RP-LC retention time of 1080 s.
With `CCS(=O)(=O)N1CC(=O)N(c2ccc(Cl)cc2C)C(C)(C(=O)NCc2ccc(F)cc2)C1` (centres undefined) the figure was 882 s.
